# US10696949B2, “Systems and methods for canine liver modeling” (Hepregen Corporation, priority 2015, dated 2020)
# Where two headings read alike, the source gives them in different places.
# Key:
# Assay type in all cases: cell-based
# HGF = HGF secretion in standard HepatoPac co-culture under chemical inhibition; conditions: standard HepatoPac format
# Source text: (§1) Hepatocyte growth factor (HGF) was implicated as one of the contributing factors causing dog hepatocyte hypertrophy and motility in the co-culture (data not shown). […] In summation, chemical inhibition (for example, via dexamethasone and TGFB2) of HGF secretion in the standard HepatoPac™ format is sufficient to abrogate hepatocyte hypertrophy.
# dog hepatocytes = assay: Dog hepatocyte hypertrophy in standard HepatoPac micropatterned co-culture
# Protocol: In order to create micropatterned co-cultures, hepatocytes were seeded in serum-free hepatocyte medium on collagen-patterned 24-well cell culture plates, resulting in a hepatocyte pattern due to selective cell adhesion. The cells were washed with media 2 to 6 hours later to remove unattached cells and incubated with serum supplemented hepatocyte medium overnight. 3T3-J2 or BJ fibroblasts were seeded in serum-supplemented fibroblast medium 12-24 hours later to create co-cultures. Culture medium was replaced with hepatocyte medium 24 hours after fibroblast seeding and subsequently replaced every one to two days. Spent media was stored for biochemical assays.
# as §1
# hepatocytes = assay: Hepatocyte hypertrophy in sandwich cultures with soluble HGF; conditions: soluble HGF alone, data not shown
# Source text: as §1
Compound,HGF level (secretion) (HGF),dog hepatocyte hypertrophy (dog hepatocytes),"dog hepatocyte hypertrophy (dog hepatocytes; standard HepatoPac format, 3T3-J2 stromal cells)",hepatocyte hypertrophy (hepatocytes)
C[C@H](CCC(=O)O)[C@H]1CC[C@H]2[C@@H]3[C@@H](O)C[C@@H]4C[C@H](O)CC[C@]4(C)[C@H]3CC[C@]12C [UDCA],reduction in HGF,decreased dog hepatocyte hypertrophy,–,–
C[C@@H]1C[C@H]2[C@@H]3CCC4=CC(=O)C=C[C@]4(C)[C@@]3(F)[C@@H](O)C[C@]2(C)[C@@]1(O)C(=O)CO [dexamethasone],–,diminished hypertrophy,–,–
O=C1c2ccccc2-n2c1nc1ccccc1c2=O [tryptanthrin],reduction in HGF,–,decreased dog hepatocyte hypertrophy,–
"Soluble human HGF: Hepatocyte growth factor, soluble human protein added to sandwich cultures",–,–,–,did not result in hepatocyte hypertrophy
TGFB2: HGF-inhibiting agent; known chemical inhibitor of HGF secretion,HGF knockdown,diminished hypertrophy,–,–
